Results as given in article PMC6600393, “Synthesis and Cytostatic Effect of 3’-deoxy-3’-C-Sulfanylmethyl Nucleoside Derivatives with D-xylo Configuration” (Molecules, 2019).

Columns and labels:
SCC = system: SCC; set-up: method as in PMID 20947470; conditions: positive control; ref [36]; cited from earlier work
[1] = system: HaCaT (human keratinocyte) cell line; experiment: MTT cell viability assay on HaCaT cells; assay type: cell-based; conditions: Homo sapiens, HaCaT, 48 h
Procedure: (§1) For the investigation of the cytotoxic effect of nucleoside analogues we used healthy human keratinocyte (HaCaT) and tumorous squamous carcinoma SCC-VII cell lines. In the experiments, a standard citotoxicity assay, the MTT assay, was used in a 96-well plate. Importantly, different cell numbers were used in the case of the two different cell lines. The HaCaT cells were seeded 10^4/well concentration while the SCC-VII cells were seeded 5000/well concentration on the plate. In both cases the cells were treated with the nucleoside analogues at ~50% confluence.
The HaCaT cell line was derived from human skin, the cells spontaneously transformed in vitro during long time incubation. Cells were cultured in DMEM medium (Biocenter, Szeged, Hungary) containing 10% fetal bovine serum (FBS, Hyclon, Logan, UT) and 1% antibiotic-antimycotic mix (Penicillin–Streptomycin–Neomycin).
(§2) Cell cultures had been kept under the same conditions during the experiments. Cells were stored at 37 °C, 95% humidity, and 5% CO2 in an incubator. During the MTT-assay, different starter cell number was used because of the cell cycle differences; HaCaT was started with 10.000/well meanwhile SCC VII with 5000/well. After passage, 24 h was assured for the cells to the adhesion. Then incubated with the compounds for 48 h. The experiments were performed in 96 well plates.
(§3) For the dilution of different concentrations of nucleoside analogues were prepared with DMSO 1% (v/v) and DMEM / DMEM-F12/Ham’s F12 cell culture medium.
(§4) After three days of incubation in the cell culture flask, cells were trypsinised into single cell suspensions. Aliquots (200 μL) of each cell suspension were placed in wells of 96-well-plates (Biocenter, Szeged, Hungary). Preliminary tests were conducted with cell numbers 5000 (SCC-VII) and 10,000 (HaCaT) per well. We have been tested five concentrations of each nucleoside analogues (20-10-5-2.5-1.25 µg/mL). The nucleoside analogues were dissolved in DMSO (1 v/v%) and DMEM/ DMEM-F12/Ham’s F12 were added to the wells to produce the required concentrations and the cells were similarly incubated for a further 48 h.
(§5) MTT (Sigma Aldrich, Budapest, Hungary) solution (0.5 mg/mL in PBS) 100 µL was added to each well. The plates were incubated for 1–2 h at 37 ^◦C, the wells aspirated, and MTT formazan extracted with 100 µL of DMSO aided by gentle agitation on a shaker. After 10 min at room temperature, the absorbances were read at 570 nm by an automatic plate reader (WALLAC Victor 2 1420 spectrophotometer), the instrument having been blanked beforehand on a row to which cells had not been added. Percentage viability (respiratory competence) of the population of cells in each well was expressed as: (Absorbance of treated cells/Absorbance of control cells) × 100. IC50 values of the nucleoside analogues were determined by Graphpad.

[2] = system: SCC-VII (mouse squamous carcinoma) cell line; experiment: MTT cell viability assay on SCC-VII cells; assay type: cell-based
Procedure: as §1
SCC-VII is a carcinoma tumor that originally arose in the abdominal wall of C3H mice in Dr. Herman Suit’s laboratory at Harvard University, Boston, Massachusetts. SCC VII cells were grown in Dulbecco’s Modified Eagle’s Medium Nutrient Mixture (DMEM-HAM’S F12) (Sigma-Aldrich) supplemented with 2 mM L-glutamine, 23 mM NaHCO3, 100 U/mL penicillin, 100 U/mL streptomycin 1% non-essential amino acids and 10% fetal bovine serum.
as §2, §3, §4, §5

HaCaT cells [3] = experiment: Time-lapse video-microscopy: mother cell size, HaCaT; assay type: cell-based, human
Procedure: Dynamic functional and morphological effects of compound 10 was investigated via time-lapse (1 frame/min) videomicroscopy under standard cell-breeding conditions. Low intensity, near-infrared (NIR) 940 nm illumination was used, for reduced phototoxicity. Parallel experiments were done in the same CO2 incubator, using two custom-built inverted microscope equipped with sensitive charge-coupled device (CCD) sensors. […] Image sequences were processed and quantitatively analyzed using NIH ImageJ open-source software-bundle. Cell size, cellular generation time, and cell growth of HaCaT and SCC cells were analyzed. Time-lapse video-microscopy record about the effect of 10 and DMSO control on HaCaT and SCC cell lines are available in Supplementary Materials. […]
Mother cells size measurement: • Opening the image sequence in 8-bit format. • Stack Deflicker: The Stack Deflicker calculates the average grey value for each frame and normalizes all frames so that they have the same average grey level as a specified frame of the stack. […] If a region of the stack is selected the average frame intensity will be calculated from this region. • Changing the brightness/contrast, if it is neccesary. • Subtrack background: Removes smooth continuous backgrounds from gels and other images. […]

SCC cells [4] = experiment: Time-lapse video-microscopy: mother cell size, SCC; assay type: cell-based, mouse
Procedure: (§6) Dynamic functional and morphological effects of compound 10 was investigated via time-lapse (1 frame/min) videomicroscopy under standard cell-breeding conditions. Low intensity, near-infrared (NIR) 940 nm illumination was used, for reduced phototoxicity. Parallel experiments were done in the same CO2 incubator, using two custom-built inverted microscope equipped with sensitive charge-coupled device (CCD) sensors. […] Image sequences were processed and quantitatively analyzed using NIH ImageJ open-source software-bundle. Cell size, cellular generation time, and cell growth of HaCaT and SCC cells were analyzed. Time-lapse video-microscopy record about the effect of 10 and DMSO control on HaCaT and SCC cell lines are available in Supplementary Materials.
Each cell line was treated with 17.0 µM solution of compound 10, dissolved in 1% (v/v) DMSO and diluted with cell culture media before application. Then, 1% (v/v) DMSO was used as control. […]
Mother cells size measurement: • Opening the image sequence in 8-bit format. • Stack Deflicker: The Stack Deflicker calculates the average grey value for each frame and normalizes all frames so that they have the same average grey level as a specified frame of the stack. […] If a region of the stack is selected the average frame intensity will be calculated from this region. • Changing the brightness/contrast, if it is neccesary. • Subtrack background: Removes smooth continuous backgrounds from gels and other images. […] A ball of given radius is rolled over the bottom side of this surface; the hull of the volume reachable by the ball is the background to be subtracted. • Treshold: Use this tool to automatically or interactively set lower and upper threshold values, segmenting grayscale images into features of interest and background. • Divided cells were selected on the binary image sequence based on their circularity determined by area/perimeter ratio. • Bigger pre-division mother cells were separated from smaller post-division daughter cells. • Pixel size was calibrated with Burker chamber. • Area calculation from pixel^2 to µm^2.

HaCaT cells [5] = experiment: Time-lapse video-microscopy: generation time, HaCaT; assay type: cell-based, human
Procedure: as §6
For the investigation of the effect of compound 10 on cell-cycle, cellular generation times were measured from time-lapse image sequences.
In LTS video-microscopy studies, ~500.000/350.000 starting cell numbers (T-25 cell culture flask) had been used. Cell cultures had been treated with compound 10 using the IC50 concentration corresponding to the SCC VII.
TLS system architecture: Using the TLS system, various parameters had been tested. Control, DMSO control, and IC50 concentration of compound 10 compared to the above. Based on literature data, 1% (v/v) is the amount that is tolerated even without significant change in cells. […]

HaCaT cells [6] = experiment: DAPI fluorescent microscopy of nucleus morphology, HaCaT; assay type: cell-based, human; conditions: 17.0 µM, 48 h, vs DMSO control
Procedure: (§7) In our experiments 4’,6-diamidino-2-phenylindole (DAPI) fluorescent DNA dye has been used for studying the cell nucleus morphology as an indicator of genotoxicity. The HaCaT and SCC cells were treated with DMSO and compound 10, fixed and stained with DAPI, then examined with fluorescent microscopy (Figure 7 and Figure 8).
(§8) For fluorescence staining, cells were breeded in the ibidi microscope slide chamber. The sample preparation process was similar to that of TLS studies, except that after 48 h the samples were fixed with PFA and washed with PBS and left to dry at room temperature overnight. DAPI dye was used for fluorescencnt labbelling of A-T rich regions of DNA.
(§9) Dehydrated slides containing fixated cells were mounted in 35 μL DAPI-Antifade Medium under 24 × […] coverslips. Fluorescence of DAPI (4′,6-diamidino-2-phenylindole) was monitored by fluorescence microscopy (Carl Zeiss Compound Universal Microscope III RS).

SCC cells [7] = experiment: DAPI fluorescent microscopy of nucleus morphology, SCC; assay type: cell-based, mouse; conditions: 17.0 µM, 48 h, vs DMSO control
Procedure: as §7, §8, §9

Row | Compound | IC50 (SCC) [µM] | IC50 [1] [µM] | SI (selectivity index) ([2]; HaCaT IC50/SCC IC50) | IC50 ([2]; Mus musculus, 48 h) [µM] | mother cell size-reduction vs. DMSO (HaCaT cells [3]; 17.0 µM) [%] | Treated Cells Size (mother cells) (HaCaT cells [3]; 17.0 µM compound 10, n = 15) [µm^2] | overall size change difference between the two cell lines (SCC cells [4]; HaCaT vs SCC mother cells, 17.0 µM) | Treated Cells Size (mother cells) (SCC cells [4]; SCC, 17.0 µM compound 10, n = 15) [µm^2] | Treated/DMSO Difference (mother cell size) (SCC cells [4]; SCC, 17.0 µM, (treated cells size/DMSO control cell size)*100-100) [%] | Treated/DMSO Difference (generation time) (HaCaT cells [5]; 17.0 µM) [%] | Treated Cells Gen. Time (HaCaT cells [5]; 17.0 µM compound 10, n = 15) [h] | nucleus morphology (DAPI) (HaCaT cells [6]) | nucleus morphology (DAPI), genotoxicity (SCC cells [7])
1 | O=c1[nH]cc(F)c(=O)[nH]1 [Compound 5-FU, 5-fluorouracil] | 60.7 ± 8.45 | – | – | – | – | – | – | – | – | – | – | – | –
2 | CCCCSC[C@@H]1[C@@H](O[Si](C)(C)C(C)(C)C)[C@H](n2cc(C)c(=O)[nH]c2=O)O[C@@H]1CO[Si](C)(C)C(C)(C)C [Compound 10, 1-[3’-Deoxy-3’-C-(n-butylsulfanylmethyl)-2’,5’-di-O-(tert-butyldimethylsilyl)-β-D-xylofuranosyl]-thymine] | – | 27.9 ± 1.85 | 1.64 | 17 ± 1.55 | 9 | 21.60 ± 1.93 | ~ 21% | 21.44 ± 1.42 | 12.8 | 20.8 | 21.67 ± 1.01 | no apparent difference | genotoxic effect
